In patent US9617517B2, “Small chemical compound which promotes induction of differentiation of stem cells into insulin-producing cells and method for inducing differentiation of stem cells into insulin-producing cells using said small chemical compound” (NATIONAL UNIVERSITY CORPORATION KUMAMOTO UNIVERSITY, priority 2011, dated 2017):

Legend:
[1] = tested on: mouse ES cells (Pdx1/GFP); assay: Differentiation of mouse ES cells into insulin positive cells on nano fiber plate, immunostaining and quantitative image analysis; assay type: cell-based
Source text: Two ES cell lines, one expressing green fluorescent protein (GFP) under the control of insulin 1 promoter, designed ING (Higuchi Y., Shiraki N., Yamane K, Qin Z., Mochitate K., Araki K., Senokuchi K., Yamagata K., Hara M., Kume K., and Kume S., Synthesized basement membranes direct the differentiation of mouse embryonic stem cells into pancreatic lineages. J. Cell Science, 123, 2733-2742, 2010), and the other one expressing GFP under the control of Pdx1 promoter, designated SK7 (Shiraki N, Yoshida T, Araki K, et al. Guided differentiation of embryonic stem cells into Pdx1-expressing regional-specific definitive endoderm. Stem Cells. 2008; 26:874-885), were used. Both cell lines were maintained on mouse embryonic fibroblast (MEF) feeders in Glasgow minimum essential medium (Invitrogen) containing 1000 units/ml leukemia inhibitory factor (LIF; Chemicon), 15% Knocked-out Serum Replacement (KSR; Gibco), 1% fetal bovine serum (FBS; Hyclone), 100 μM nonessential amino acids (NEAA; Invitrogen), 2 mM L-glutamine (L-Gln; Invitrogen), 1 mM sodium pyruvate (Invitrogen), 50 units/ml penicillin and 50 μg/ml streptomycin (PS; Invitrogen) and 100 μM β-mercaptoethanol (β-ME; Sigma), as ES maintenance medium.
For the differentiation studies, ES cells were plated at 5,000 cells per well in Corning 96 well plate with Ultra-Web Synthetic Polyamine Surface (#3873XX1, Corning Coster, Cambridge, Miss.), and cultured. The cells were cultured in Dulbecco's Modified Eagle Medium (DMEM: Invitrogen, Glasgow, UK) containing 4500 mg/L glucose, supplemented with NEAA, L-Gln, PS, β-ME, 10 μg/ml insulin (Sigma-Aldrich), 5.5 μg/ml transferrin (Sigma-Aldrich), 6.7 pg/ml selenium (Sigma-Aldrich), and 0.25% Albmax (Invitrogen), 10 ng/mL recombinant human activin-A (R&D Systems, Minneapolis, Minn.), 5 ng/mL; recombinant human bFGF for 7 days (d1-d7) (I of FIG. 1). And then, the medium was changed to RPMI 1640 medium (Invitrogen) containing 2000 mg/L glucose (Sigma, St Louis, Mo.), 1 μM Retinoic acid (Sigma-Aldrich), 50 ng/ml Human Recombinant Fibroblast Growth Factor-10 (Peprotech, Rocky Hill, N.J.), B27 SUPPLEMENT (Invitrogen) and 0.25 μM 3-Keto-N-(aminoethyl-aminocaproyl-dihydrocinnamoyl) cyclopamine Shh Signaling Antagonist II (Calbiochem, San Diego, Calif.) on d7 to d11 (II of FIG. 1). Finally, the medium was switched to DMEM containing 1000 mg/L glucose supplemented with NEAA, L-Gln, PS, β-ME, 10 μg/ml insulin (Sigma-Aldrich), 5.5 μg/ml transferrin (Sigma-Aldrich), 6.7 pg/ml selenium (Sigma-Aldrich), 0.25% Albmax (Invitrogen) and 10 mM nicotinamide (Sigma-Aldrich) on d11 to d17 (III of FIG. 1). Media were replaced every 2 days with fresh medium and growth factors until d17.
All tested small chemical compounds were solved in dimethyl sulfoxide (DMSO) at given concentration. Compounds were added on d11, d13 and d15 in a medium. Final concentration of DMSO was adjusted at 1.0% in all experiments for compounds.
After 17 days cell culture, cultured ES cells were fixed in 4% paraformaldehyde in PBS for 30 min at room temperature, and rinsed several times with PBS. Then, cells were incubated in the added diluted primary antibody in 20% Blocking One (Nacalai tesque, Tokyo, Japan) in PEST (0.1% Tween-20 in PBS) in a humidified chamber for overnight at 4° C. After washing the cells in PBST, cells were incubated with the secondary antibody in 20% Blocking One for 2 hr at room temperature in dark. After washing off the secondary antibody in PBST, cells were counterstained with […] (DAPI) (Roche Diagnostics). The following antibodies were used as First antibodies: Rabbit anti-GFP (MBL International Corp., Woburn, Mass.), Mouse anti-Insulin (Sigma). The following antibodies were used as Secondary antibodies: Alexa 568-conjugated, Alexa 488-conjugated antibodies (Invitrogen) Cells were counterstained with DAPI (Roche Diagnotics, Basel, Switzerland).

differentiated ES cells [2] = assay: Real time PCR of gene expression in differentiated ES cells; assay type: cell-based, mouse; settings: TBZ 2.5 μM
differentiated ES cells [3] = assay: Secreted insulin and cellular insulin content by mouse c-peptide ELISA; assay type: cell-based
VMAT2KD ES cells = assay: c-peptide amount of differentiated VMAT2KD ES cells (ELISA); assay type: cell-based, mouse; settings: dBu-cAMP 0.6 μM (FIG. 12A)
Description: In the Vmat2-knockdown and Drd2-knockdown assays, Expression Arrest non-silencing control shRNA (Open Biosystems, #RHS4080), Vmat2 hRNA (Open Biosystems, #RMM3981-97058457 and #RMM3981-97058458) or Drd2 hRNA (Open Biosystems, #RMM3981-9594258) lentiviral vectors were used. For virus preparation, HEK293-FT cells (Invitrogen) were seeded on a plate medium the day before transfection. After overnight culture, the cells were transfected with lentiviral vectors and ViraPower™ Lentiviral Packaging Mix (Invitrogen) using FuGENE6 Transfection Reagent (Roche) according to the manufacturer's protocol. Cells were incubated in the ES maintenance medium for 24 hours, and viral supernatants were collected. Then, SK7 cells were infected with the viral supernatants. After incubation for 24 hours, the virus-containing medium was replaced with fresh ES maintenance medium. Further 24 hours later, the infected cells were selected using […] puromycin. The surviving cells were cloned as a knockdown-cell lines.
Differentiated ES cells were pre-incubated for 4 hours in low glucose (5.5 mM) Dulbecco's modified minimal essential medium with 1% fetal bovine serum. […] Insulin secretion into the culture medium and insulin content of the cell lysate were measured using the mouse c-peptide ELISA kit (Shibayagi. Co. Ltd., Japan). […]

With CCCC(=O)Nc1ncnc2c1ncn2[C@@H]1O[C@@H]2COP(=O)(O)O[C@H]2[C@H]1OC(=O)CCC [Dibutyryl- cAMP, dibutyrate-cAMP] the “increase of number of insulin positive cells” value ([1]; 0.6 μM dBu-cAMP (FIG. 11B)) was “about 7 fold”, the “increase of number of insulin-expressing cells” value ([1]; NS cells, 0.63 μM dBu-cAMP d11-d17 (FIG. 11A)) was 2.9 fold and the “effect on differentiation into insulin-expressing cells” value ([1]; compound added d11-d17, insulin staining d17 (FIG. 4, 5, 7, 8, 10)) was “enhanced the differentiation into insulin-expressing cells”. The “Relative value of Ins positive cells” value ([1]; number of cells with no compound = 1, concentration of each compound (μM), added d11, d13, d15, analysed d17) was 4.9, the “expression of Abcc8” value (differentiated ES cells [2]; dBu-cAMP 0.6 μM (FIG. 13)) was “increased remarkably” and the “expression of Glut2” value (differentiated ES cells [2]; dBu-cAMP 0.6 μM (FIG. 13)) was “increased remarkably”. For the same molecule, the “expression of MafA” value (differentiated ES cells [2]; dBu-cAMP 0.6 μM (FIG. 13)) was “increased slightly”, the “expression of Stx1” value (differentiated ES cells [2]; dBu-cAMP 0.6 μM (FIG. 13)) was “increased slightly” and the “expression level of MafA, time course” value (differentiated ES cells [2]; dBu-cAMP 0.6 μM from day 11, after day 13 (FIG. 15)) was “promoted”. The “expression level of Ngn3” value (differentiated ES cells [2]; dBu-cAMP 0.6 μM from day 11, day 13 and day 15 (FIG. 15)) was “increased also”, the “expression level of Insulin1” value (differentiated ES cells [2]; dBu-cAMP 0.6 μM from day 11, single after day 13, both after day 15 (FIG. 15)) was “promoted” and the “sugar-responsive C-peptide secretion” value (differentiated ES cells [3]; dBu-cAMP 0.6 μM, no TBZ, addition days 11-17, 11-15 or 13-17, day 17 (FIG. 17)) was “increased in all conditions”. For the same molecule, the C-peptide secretion (differentiated ES cells [3]; glucose concentration 27.5 mM, dBu-cAMP 0.6 μM day 11 to 17 (FIG. 18E)) was “C-peptide secretion was observed” and the “c-peptide amount of differentiated cells” value (VMAT2KD ES cells) was “large increase in the c-peptide amount”.
